Experiments:
RAD51 [1] = target: T1, RAD51 (Homo sapiens, UniProt Q06609); conditions: while sparing ssDNA binding activity; cited from earlier work
T1 sequence (Q06609 1-339): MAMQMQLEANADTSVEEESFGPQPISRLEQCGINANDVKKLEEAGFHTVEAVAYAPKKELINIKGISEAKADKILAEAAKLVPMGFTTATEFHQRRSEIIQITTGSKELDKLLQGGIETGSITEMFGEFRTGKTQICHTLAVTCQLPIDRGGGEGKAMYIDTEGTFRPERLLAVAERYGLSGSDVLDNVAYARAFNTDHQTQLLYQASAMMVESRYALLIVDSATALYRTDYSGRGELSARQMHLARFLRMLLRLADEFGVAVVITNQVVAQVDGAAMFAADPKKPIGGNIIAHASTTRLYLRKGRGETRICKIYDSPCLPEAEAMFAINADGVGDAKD

RAD51 foci [2] = conditions: previously reported; cited from earlier work
RAD51 [3] = target: T1, RAD51; assay: Gel-based D-loop assay; format: biochemical; conditions: Table 2
Procedure: Human RAD51 in reaction buffer was combined with compound in […] DMSO, incubated at 37° C. for 10 min, and then 1 μl of 5′-^32P-labeled 90-mer ssDNA (5′-[…]) with homology to the plasmid pRS306 ^34 was added and the reaction was incubated at 37° C. for an additional 5 minutes. 1 μl of supercoiled pRS306 was then added to the reaction and incubated at 37° C. for 20 minutes; at this point the reaction consisted of 25 mM HEPES-NaOH (pH 7.0), 1 mM ATP, 1 mM MgCl2, 1 mM DTT, 1.5 μM BSA, 4.5% DMSO, 0.5 μM RAD51, 11 mM NaCl, 1% glycerol, 20 nM ssDNA, and 5 nM pRS306. The reactions were de-proteinized with 0.8% SDS and 0.8 mg/ml proteinase K, mixed with gel loading buffer, and run on a 0.9% agarose/1×TAE gel, which was dried and exposed to a phosphor screen overnight and imaged on a Storm 860 PhosphorImager. Compound IC50 values were obtained by least-squares regression fitting of appropriate linear, log, or sigmoid dose-response models to the data, with the standard error indicated.
To improve upon the D-loop inhibitory activity, medicinal chemical studies were undertaken to optimize 8. First, different functional groups were appended to rings A and B as substituents, including alkyl groups of different sizes, electron withdrawing/donating groups, and hydrogen bond donor/acceptor groups. Next, replacement of the phenyl ring B with different heterocycles or other saturated/unsaturated rings was investigated in order to probe its role. For each of the prepared compounds, the gel-based D-loop assay and the microplate-based DNA binding assay were used to characterize the biochemical activities.

RAD51 [4] = target: T1, RAD51; assay: Fluorescence polarization-based DNA binding assay (RAD51-ssDNA binding); format: biochemical
Procedure: The fluorescence polarization-based DNA binding assay and purification of human RAD51 used for this assay was performed as previously described with a few modifications.^23 Reactions were carried out in black 384-well polystyrene plates. In each well, RAD51 protein was combined with reaction buffer and varying concentrations of compound in DMSO in an initial volume of 40 μl and incubated at 37° C. for 40 minutes. Then, 10 μl of reaction buffer containing fluorescently-labeled ssDNA substrate (5′-Alexa488-oligo-dT45) was added and the reaction incubated at 37° C. for another 40 minutes, after which the plate was read on a Tecan Infinite 200 Pro plate reader equipped with two sets of 485±25 nm/535±35 nm with parallel or perpendicularly-oriented polarization filters. In both steps of the reaction setup, buffer components were maintained at 20 mM HEPES-NaOH (pH 7.5), 2 mM ATP, 10 mM MgCl2, 0.1 mM TCEP-HCl (tris(2-carboxyethyl)phosphine), and 0.25 μM BSA. The final reaction contained 4% DMSO, 0.2 μM RAD51, 30 mM NaCl, 2% glycerol, and 2.22 nM ssDNA substrate. Compound IC50 values were obtained by least-squares regression fitting of appropriate linear, log, or sigmoid dose-response models to the data, with the standard error indicated. […]

293-DR-GFP cells = assay: DR-GFP assay, quantitation of HR efficiency in cells; format: cell-based, human
Procedure: 293-DR-GFP cells were electroporated in Opti-MEM with 37.5 μg/ml pCBASce in 0.4 cm cuvettes at 325 V, 975 μF and seeded into 6-well plates with 2.5 ml complete DMEM+0.5% DMSO with compound and allowed to outgrow for 24 hours. Following outgrowth, cells were harvested and suspended in PBS with 1 μg/ml 7-aminoactinomycin D (7-AAD) and analyzed on a BD FACSCalibur flow cytometer. Dead and apoptotic cells were gated out based on size, shape, and 7-AAD staining and the fraction of GFP-positive cells among the population of live cells was determined.
The DR-GFP assay was used to test the ability of representative compounds to inhibit HR in human cells.^27 Briefly, cells containing the chromosomal DR-GFP reporter were transfected with a plasmid that expresses I-SceI, a rare-cutting endonuclease that makes a DSB within the DR-GFP cassette. Compounds were added at the time of transfection and the cells were outgrown for 24 hours. For longer outgrowth periods such as 48 hours, cells regained some HR activity. To overcome this technical limitation, the relatively early time point of 24 hours was selected to describe the in vivo effects of these compounds.

RAD51 foci [5] = assay: RAD51 cytological focus formation after irradiation; format: cell-based, human; conditions: 6 hours post-irradiation
Procedure: Cells were grown on glass coverslips for two days prior to irradiation with X-rays at 1.5 Gy/min using a Philips RT250 Maxitron. Following 6 hours of outgrowth, the adherent cells were incubated in permeabilization buffer (20 mM HEPES-NaOH (pH 7.4), 50 mM NaCl, 3 mM MgCl2, 0.5% Triton X-100, 300 mM sucrose) for 10 minutes at room temperature and then fixed in ice-cold fixation buffer (3% paraformaldehyde, 3.4% sucrose in 1×PBS) for 10 minutes at room temperature. The coverslips were washed 3 times in PBS, incubated in blocking buffer (1% BSA in 1×PBS) for 30 minutes, incubated with rabbit anti-human RAD51 primary antibody (Pacific Immunology) at a 1:1000 dilution in blocking buffer for 18 hours at 4° C., washed 3 times in PBS, incubated with Alexa488-conjugated goat anti-rabbit IgG secondary antibody (Invitrogen) at a 1:1000 dilution in blocking buffer for 1 hour at room temperature, washed 3 times in PBS, air-dried, and mounted onto glass slides in Vectashield with DAPI H-1200 (Vector laboratories). Slides were viewed on a Zeiss Axio Imager.M1 epifluorescence microscope equipped with a CCD camera for acquiring images of at least 100 randomly-selected nuclei per test condition at a representative focal plane within the nuclear volume. Sub-nuclear RAD51 foci were quantified using ImageJ (NIH, Bethesda, Md.) using a custom macro set that automatically counts foci. […]

[6] = system: PC-3, Caov-3, SKOV3.ip1, Kuramochi, U2OS cell lines; assay: Clonogenic survival of tumor cell lines after veliparib, olaparib or ionizing radiation; format: cell-based; conditions: administered immediately after veliparib, present during clonogenic outgrowth, FIGS. 6a-f
Procedure: FIG. 6A PC-3 cell line treated with veliparib. FIG. 6B Caov-3 cell line treated with veliparib. FIG. 6C Caov-3 cell line treated with olaparib. FIG. 6D SKOV3.ip1 cell line treated with veliparib. FIG. 6E Kuramochi cell line treated with veliparib. FIG. 6F U2OS cell line treated with ionizing radiation (x-rays).
Because 9h inhibits HR-mediated repair of DSBs, the effect of 9h on the sensitization of cancer cells to PARP inhibition or radiation damage was investigated. […] 2.

Row | Structure (SMILES) | inhibition of RAD51's HR activity in biochemical assays (RAD51 [1]) | formation of RAD51 foci in human cells following irradiation (RAD51 foci [2]) | D-Loops Max inhibition effect (RAD51 [3]) | Emax (RAD51 [4]; Table 2, cells marked ↑: compound stimulates RAD51-ssDNA binding, read-out: ssDNA binding Max effect) | influence on RAD51-ssDNA binding, in words (RAD51 [4]; summary of Tables 2 and 3) | IC50 (293-DR-GFP cells; Homo sapiens, 24 hours post-transfection, FIG. 5b, read-out: IC50, inhibition of cellular HR) | inhibition of cellular HR (293-DR-GFP cells; at concentrations that did not inhibit RAD51 foci assembly) | timely assembly of RAD51 into sub-nuclear foci in response to DNA damage (RAD51 foci [5]) | sensitization of cancer cell lines to veliparib, olaparib or irradiation (clonogenic survival) [6] | sensitization of cancer cell lines to veliparib, olaparib or irradiation (clonogenic survival) ([6]; listed as RI(dl)-2)
1 | C[C@@]12CCC(=O)c3coc(c31)C(=O)c1cc3c(cc12)C(=O)C=CC3=O [Halenaquinone, halenaquinone] | strongly inhibit | inhibit |  |  |  |  |  |  |  | 
2 | CCNc1ccc(-c2nc3ccccc3n3cccc23)cc1 [Compound 9h, N-ethyl-4-(pyrrolo[1,2-a]quinoxalin-4-yl)aniline] |  |  | 91 ± 2% | 2 ± 24% | almost no impact | 300 ± 125 nM | more than 90% | did not inhibit | significantly sensitized | significantly sensitizes
